The IC50 is the concentration that inhibits the measured activity by half.

Here are results for 20 molecules from ChEMBL document CHEMBL1150351, “Design, synthesis, and biological evaluation of new-generation taxoids” (J Med Chem, 2008).

Structures are written as SMILES.

Assay [1] can be described thus: Cytotoxicity against Pgp deficient human LCC6 cells after 72 hrs by sulforhodamine B test. In kind it is functional, cell-based. To be noted: C6, 72 h. (The SRB assay estimates cell density from bound dye.)
Assay [2] in a line: Cytotoxicity against multidrug resistant Pgp expressing human LCC6 cells after 72 hrs by sulforhodamine B test. In kind it is functional, cell-based. To be noted: LCC-6, 72 h.
Assay [3] has as its system C6. The assay can be described thus: Resistance index, Ratio of IC50 for multidrug resistant Pgp expressing human LCC6 cells to IC50 for Pgp deficient human LCC6 cells. In kind it is functional. Also noted: reference not given here.

With `CCC(=O)O[C@H]1C(=O)[C@@]2(C)[C@H]([C@H](OC(=O)c3cccc(F)c3)[C@]3(O)C[C@H](OC(=O)[C@H](O)[C@H](CC(C)C)NC(=O)OC(C)(C)C)C(C)=C1C3(C)C)[C@]1(OC(C)=O)CO[C@@H]1C[C@@H]2O`, in assay [1], the half-maximal inhibitory concentration (IC50) was found to be 0.4 nM.
On to `COc1cccc(C(=O)O[C@H]2[C@@H]3[C@]4(OC(C)=O)CO[C@@H]4C[C@H](O)[C@@]3(C)C(=O)[C@H](OC(=O)C3CC3)C3=C(C)[C@@H](OC(=O)[C@H](O)[C@H](C=C(C)C)NC(=O)OC(C)(C)C)C[C@]2(O)C3(C)C)c1`, for which the IC50 came out at 1 nM in assay [1] and 2.9 nM in assay [2]. In addition, in assay [3], the “Ratio IC50” value amounted to 2.9.
For `CC(=O)O[C@@]12CO[C@@H]1C[C@H](O)[C@@]1(C)C(=O)[C@H](OC(=O)c3ccccc3)C3=C(C)[C@@H](OC(=O)[C@H](O)[C@H](C=C(C)C)NC(=O)OC(C)(C)C)C[C@@](O)([C@@H](OC(=O)c4ccccc4)[C@H]21)C3(C)C` the same measures were 1.8 nM, 4.8 nM and 2.7.
As for `C=Cc1cccc(C(=O)O[C@H]2[C@@H]3[C@]4(OC(C)=O)CO[C@@H]4C[C@H](O)[C@@]3(C)C(=O)[C@H](OC(=O)CC)C3=C(C)[C@@H](OC(=O)[C@H](O)[C@H](C=C(C)C)NC(=O)OC(C)(C)C)C[C@]2(O)C3(C)C)c1`, the IC50 in assay [1] came out at 2.9 nM.
Take `CC(=O)O[C@@]12CO[C@@H]1C[C@H](O)[C@@]1(C)C(=O)[C@H](OC(=O)OCc3ccccc3)C3=C(C)[C@@H](OC(=O)[C@H](O)[C@H](C=C(C)C)NC(=O)OC(C)(C)C)C[C@@](O)([C@@H](OC(=O)c4ccccc4)[C@H]21)C3(C)C`: the IC50 was 1.8 nM in assay [1] and 16.7 nM in assay [2]. Further, the “Ratio IC50” value in assay [3] came to 9.3.
Consider `COc1ccc(CCC(=O)O[C@H]2C(=O)[C@@]3(C)[C@H]([C@H](OC(=O)c4ccccc4)[C@]4(O)C[C@H](OC(=O)[C@H](O)[C@H](C=C(C)C)NC(=O)OC(C)(C)C)C(C)=C2C4(C)C)[C@]2(OC(C)=O)CO[C@@H]2C[C@@H]3O)cc1`, for which the IC50 in assay [1] amounted to 1.7 nM; in assay [2] it was 4.9 nM. The “Ratio IC50” value in assay [3] was 2.9.
`COc1cccc(CC(=O)O[C@H]2C(=O)[C@@]3(C)[C@H]([C@H](OC(=O)c4ccccc4)[C@]4(O)C[C@H](OC(=O)[C@H](O)[C@H](C=C(C)C)NC(=O)OC(C)(C)C)C(C)=C2C4(C)C)[C@]2(OC(C)=O)CO[C@@H]2C[C@@H]3O)c1`: the half-inhibitory concentration (IC50) in assay [1] was found to be 2.1 nM; in assay [2] it was 20.3 nM. Also, the “Ratio IC50” value in assay [3] is 9.7.
For `CC(=O)O[C@@]12CO[C@@H]1C[C@H](O)[C@@]1(C)C(=O)[C@H](OC(=O)c3cccc4ccccc34)C3=C(C)[C@@H](OC(=O)[C@H](O)[C@H](C=C(C)C)NC(=O)OC(C)(C)C)C[C@@](O)([C@@H](OC(=O)c4ccccc4)[C@H]21)C3(C)C` the same measures were 5.3 nM, 15.2 nM and 2.9.
Regarding `CC(=O)O[C@@]12CO[C@@H]1C[C@H](O)[C@@]1(C)C(=O)[C@H](OC(=O)CCc3ccccc3)C3=C(C)[C@@H](OC(=O)[C@H](O)[C@H](C=C(C)C)NC(=O)OC(C)(C)C)C[C@@](O)([C@@H](OC(=O)c4ccccc4)[C@H]21)C3(C)C`, the values for the IC50 in assay [1] and in assay [2] were 5.1 nM and 31.2 nM, respectively. The “Ratio IC50” value in assay [3] was found to be 6.1.
Consider `COc1ccc(C(=O)O[C@H]2C(=O)[C@@]3(C)[C@H]([C@H](OC(=O)c4ccccc4)[C@]4(O)C[C@H](OC(=O)[C@H](O)[C@H](C=C(C)C)NC(=O)OC(C)(C)C)C(C)=C2C4(C)C)[C@]2(OC(C)=O)CO[C@@H]2C[C@@H]3O)cc1`, for which the IC50 turned out to be 3.8 nM in assay [1] and 4.7 nM in assay [2]. Further, the “Ratio IC50” value in assay [3] worked out at 1.2.
In assay [1], `C/C=C/[C@H](NC(=O)OC(C)(C)C)[C@@H](O)C(=O)O[C@H]1C[C@@]2(O)[C@@H](OC(=O)c3cccc(OC)c3)[C@@H]3[C@]4(OC(C)=O)CO[C@@H]4C[C@H](O)[C@@]3(C)C(=O)[C@H](OC(=O)CC)C(=C1C)C2(C)C` came in with an IC50 of 1.2 nM.
`COc1ccccc1CCC(=O)O[C@H]1C(=O)[C@@]2(C)[C@H]([C@H](OC(=O)c3ccccc3)[C@]3(O)C[C@H](OC(=O)[C@H](O)[C@H](C=C(C)C)NC(=O)OC(C)(C)C)C(C)=C1C3(C)C)[C@]1(OC(C)=O)CO[C@@H]1C[C@@H]2O`: the IC50 in assay [1] amounted to 1.5 nM; in assay [2], 5 nM. The “Ratio IC50” value in assay [3] amounted to 3.3.
Regarding `CCC(=O)O[C@H]1C(=O)[C@@]2(C)[C@H]([C@H](OC(=O)c3cccc(F)c3)[C@]3(O)C[C@H](OC(=O)[C@H](O)[C@H](C=C(C)C)NC(=O)OC(C)(C)C)C(C)=C1C3(C)C)[C@]1(OC(C)=O)CO[C@@H]1C[C@@H]2O`, in assay [1], the IC50 is 0.5 nM.
Take `CC(=O)O[C@@]12CO[C@@H]1C[C@H](O)[C@@]1(C)C(=O)[C@H](O)C3=C(C)[C@@H](OC(=O)[C@H](O)[C@@H](NC(=O)OC(C)(C)C)c4ccccc4)C[C@@](O)([C@@H](OC(=O)c4ccccc4)[C@H]21)C3(C)C.O.O.O` [DOCETAXEL]: the IC50 in assay [1] was determined as 1 nM; in assay [2] it was 120 nM.
Regarding `COc1ccccc1C(=O)O[C@H]1C(=O)[C@@]2(C)[C@H]([C@H](OC(=O)c3ccccc3)[C@]3(O)C[C@H](OC(=O)[C@H](O)[C@H](C=C(C)C)NC(=O)OC(C)(C)C)C(C)=C1C3(C)C)[C@]1(OC(C)=O)CO[C@@H]1C[C@@H]2O`, the results for the 50% inhibitory concentration (IC50) in assay [1] and in assay [2] were 2.1 nM and 5.8 nM, respectively. For the same molecule, the “Ratio IC50” value in assay [3] is 2.7.
In turn, `CCC(=O)O[C@H]1C(=O)[C@@]2(C)[C@H]([C@H](OC(=O)c3cccc(Cl)c3)[C@]3(O)C[C@H](OC(=O)[C@H](O)[C@H](C=C(C)C)NC(=O)OC(C)(C)C)C(C)=C1C3(C)C)[C@]1(OC(C)=O)CO[C@@H]1C[C@@H]2O` gave a half-maximal inhibitory concentration (IC50) in assay [1] of 0.8 nM.
Take `COc1ccccc1CC(=O)O[C@H]1C(=O)[C@@]2(C)[C@H]([C@H](OC(=O)c3ccccc3)[C@]3(O)C[C@H](OC(=O)[C@H](O)[C@H](C=C(C)C)NC(=O)OC(C)(C)C)C(C)=C1C3(C)C)[C@]1(OC(C)=O)CO[C@@H]1C[C@@H]2O`: the IC50 in assay [1] was found to be 2.3 nM; in assay [2], 13.8 nM. Further, the “Ratio IC50” value in assay [3] amounted to 6.
`COc1cccc(CCC(=O)O[C@H]2C(=O)[C@@]3(C)[C@H]([C@H](OC(=O)c4ccccc4)[C@]4(O)C[C@H](OC(=O)[C@H](O)[C@H](C=C(C)C)NC(=O)OC(C)(C)C)C(C)=C2C4(C)C)[C@]2(OC(C)=O)CO[C@@H]2C[C@@H]3O)c1`: the IC50 worked out at 3.7 nM in assay [1] and 6.7 nM in assay [2]. The “Ratio IC50” value in assay [3] stood at 1.8.
For `CC(=O)O[C@@]12CO[C@@H]1C[C@H](O)[C@@]1(C)C(=O)[C@H](OC(=O)c3ccc4ccccc4c3)C3=C(C)[C@@H](OC(=O)[C@H](O)[C@H](C=C(C)C)NC(=O)OC(C)(C)C)C[C@@](O)([C@@H](OC(=O)c4ccccc4)[C@H]21)C3(C)C` the same measures were 6.3 nM, 15.2 nM and 2.4.
In the same order, the values of `COc1cccc(C(=O)O[C@H]2C(=O)[C@@]3(C)[C@H]([C@H](OC(=O)c4ccccc4)[C@]4(O)C[C@H](OC(=O)[C@H](O)[C@H](C=C(C)C)NC(=O)OC(C)(C)C)C(C)=C2C4(C)C)[C@]2(OC(C)=O)CO[C@@H]2C[C@@H]3O)c1` are 2.8 nM, 5.1 nM and 1.8.
